This note sets out measurements from patent publication EP0290169A2, “Diamineplatinum complexes with phosphonocarboxylate and substituted phosphonocarboxylate ligands as antitumor agents” (ENGELHARD CORPORATION, priority 1987, dated 1988).

For one experiment, the system named is Sarcoma 180 ascites. As to the kind of experiment: S180a screening (Sarcoma 180 ascites tumor model), increase in life span. Type of experiment: in vivo, CFW mice. To be noted: for Surv.: survivors on day of evaluation. The procedure: CFW mice, averaging 20 g, are innoculated on day zero with 0.2 mL of a freshly prepared saline suspension (0.15 M NaCI) containing 1 × 10^7 tumor cells/mL, or a total of 2 x 10^6 cells. On day I, the mice are injected with the test compound in the selected medium (usually water). Six mice are used per test dose, with six doses normally being run.
Also, on day one, two types of controls (6 mice/set are employed: (1) Normal (1 set): 0.5 mL of the solvent medium used for the test compound, and (2) Positive control (1 set): cis-[Pt(NH3)2Cl2] in saline at 8 mg/kg.
The effectiveness of a compound is measured in terms of the increase in life span (ILS) of the test animals relative to the controls calculated from the day of tumor inoculation (day zero). The day of evaluation is arbitrarily taken as that day corresponding to twice the mean life-span of the normal controls. This sets a practical upper limit of 100% on the ILS attainable. For calculation purposes, survivors on the day of evaluation are considered to have died on that day. The % ILS is formulated as: [formula]
ILS values above 50% represent activity. The positive controls must have an ILS of ≧ 50% for the test to be valid.

For a further experiment, the system named is L1210 leukemia. As to the kind of experiment: L1210 screening (L1210 leukemia tumor model), increase in life span. The note with it: for Surv.: survivors. It is filed as in vivo, Female CDF1 mice. As for the experimental part: Female CDF1 mice (16-22 g) are injected with a suspension of 1 x 10^6 tumor cells in 0.5 mL of 0.15 M saline on day zero. On day one, the mice receive the test compound in 0.5 mL of the chosen medium (usually water). Six mice were used for each test dose, with six doses normally being run. Normal controls (six mice) receive tumor on day zero and 0.5 mL of the test medium on day one. Positive controls (six mice) receive tumor on day zero and 8 mg/kg cisplatin in 0.5 mL of 0.15 M saline on day one. All compound doses are adjusted for the actual average weight of the mice involved. Testing is terminated at three times the normal control mean life span. The percent increase in lifespan (ILS) is calculated as follows: %ILS = [(mean life span (test)/mean life span(control)-I]x100 A 25% ILS or greater indicates activity. The maximum possible ILS is 200%. The positive control must have an ILS of S 25% for the test to be considered valid.
The tumor line is maintained by transfer of 5 x 10^4- cells in 0.1 mL saline every seven days. DBA/2 (18-22 g) mice are employed for tumor transfers

[1] abbreviates: dose 20.00 mg/kg on day 1, vehicle water.
The mark [2] stands for this setting: dose 40.00 mg/kg on day 1, vehicle water.
[3] abbreviates: dose 80.00 mg/kg on day 1, vehicle water.
[4] abbreviates: dose 160.00 mg/kg on day 1, vehicle water.
[5] abbreviates: dose 320.00 mg/kg on day 1, vehicle water.
Setting [6] is: dose 5.00 mg/kg on day 1, vehicle water.
[7] abbreviates: dose 10.00 mg/kg on day 1, vehicle water.
Where [8] appears, read: dose 5.00 mg/kg on day 1, vehicle water, pH7.
The mark [9] stands for this setting: dose 10.00 mg/kg on day 1, vehicle water, pH7.
Setting [10] is: dose 20.00 mg/kg on day 1, vehicle water, pH7.
The mark [11] stands for this setting: dose 40.00 mg/kg on day 1, vehicle water, pH7.
Where [12] appears, read: dose 80.00 mg/kg on day 1, vehicle water, pH7.
The mark [13] stands for this setting: dose 160.00 mg/kg on day 1, vehicle water, pH7.

Consider `CC(N)CN.O=C1CP(=O)(O)[O][Pt][O]1` (racemic) [Ex 10, H[Pt(pn)(phasphonoacetate)]], for which the “%ILS” value in the experiment with Sarcoma 180 ascites (setting [1]) is recorded as 77%; in the experiment with Sarcoma 180 ascites (setting [2]), 9%; in the experiment on Sarcoma 180 ascites (setting [3]), -71%; with Sarcoma 180 ascites (setting [4]), -78%; in the experiment on Sarcoma 180 ascites (setting [5]), -79%; with L1210 leukemia (setting [6]), -5%. In addition, the “%ILS” value was 2% in the experiment on L1210 leukemia (setting [7]); -13% with L1210 leukemia (setting [1]); -13% with L1210 leukemia (setting [2]); -34% with L1210 leukemia (setting [3]); -52% in the experiment on L1210 leukemia (setting [4]). Further, the Surv. in the experiment with Sarcoma 180 ascites (setting [1]) is 3/ 6; in the experiment on Sarcoma 180 ascites (setting [2]) it was 1/ 6; in the experiment with Sarcoma 180 ascites (setting [3]), 0/ 6; in the experiment on Sarcoma 180 ascites (setting [4]) it was 0/ 6; with Sarcoma 180 ascites (setting [5]) it was 0/ 6; with L1210 leukemia (setting [6]), 0/ 6. For the same compound, the Surv. in the experiment on L1210 leukemia (setting [7]), in the experiment with L1210 leukemia (setting [1]), in the experiment with L1210 leukemia (setting [2]), in the experiment with L1210 leukemia (setting [3]) and in the experiment with L1210 leukemia (setting [4]) was 0/ 6 throughout.

Turning to `CC(C)N.CC(C)N.O=C1CP(=O)([O-])[O][Pt][O]1.[Na+]` [Ex 9, Na[cis-Pt(i-PrNH2)2(phosphonoacetate)]], the “%ILS” value in the experiment on Sarcoma 180 ascites (setting [1]) is 1%; in the experiment with Sarcoma 180 ascites (setting [2]) it was -2%; in the experiment with Sarcoma 180 ascites (setting [3]) it was -4%; in the experiment on Sarcoma 180 ascites (setting [4]), 15%; with Sarcoma 180 ascites (setting [5]), 17%. For the same compound, the Surv. with Sarcoma 180 ascites (setting [1]), in the experiment on Sarcoma 180 ascites (setting [2]), with Sarcoma 180 ascites (setting [3]), with Sarcoma 180 ascites (setting [4]) and with Sarcoma 180 ascites (setting [5]) was 0/ 6 throughout.

For the compound `CC1C(=O)[O][Pt][O]P1(=O)[O-].N.N.[Na+]` (racemic) [Ex 15, Na[cis-Pt(NH3)2(2-phosphonopropionate)]], the “%ILS” value is 16% in the experiment with Sarcoma 180 ascites (setting [7]); 1% with Sarcoma 180 ascites (setting [1]); -7% in the experiment with Sarcoma 180 ascites (setting [2]); -80% in the experiment on Sarcoma 180 ascites (setting [3]); -80% in the experiment on Sarcoma 180 ascites (setting [4]). The Surv. in the experiment on Sarcoma 180 ascites (setting [7]) is 1/ 6; in the experiment with Sarcoma 180 ascites (setting [1]) it was 0/ 6; with Sarcoma 180 ascites (setting [2]), 0/ 6; in the experiment with Sarcoma 180 ascites (setting [3]) it was 0/ 6; with Sarcoma 180 ascites (setting [4]), 0/ 6.

For the compound `NCCN.O=C1CP(=O)(O)[O][Pt][O]1` [Ex 16, H[Pt(en)(phosphonoacetate)]], the “%ILS” value with Sarcoma 180 ascites (setting [6]) is reported as -2%; in the experiment on Sarcoma 180 ascites (setting [8]) it was -3%; with Sarcoma 180 ascites (setting [7]), 3%; in the experiment with Sarcoma 180 ascites (setting [9]) it was 2%; in the experiment on Sarcoma 180 ascites (setting [1]), 29%; in the experiment with Sarcoma 180 ascites (setting [10]), 14%. In addition, the “%ILS” value was 64% with Sarcoma 180 ascites (setting [2]); 72% in the experiment on Sarcoma 180 ascites (setting [11]); 84% with Sarcoma 180 ascites (setting [3]); 93% in the experiment on Sarcoma 180 ascites (setting [12]); 85% in the experiment with Sarcoma 180 ascites (setting [4]); -32% in the experiment on Sarcoma 180 ascites (setting [13]). The Surv. is reported as 0/ 6 in the experiment on Sarcoma 180 ascites (setting [8]); 0/ 6 in the experiment on Sarcoma 180 ascites (setting [6]); 0/ 6 in the experiment on Sarcoma 180 ascites (setting [9]); 0/ 6 with Sarcoma 180 ascites (setting [7]); 0/ 6 with Sarcoma 180 ascites (setting [10]); 1/ 6 in the experiment on Sarcoma 180 ascites (setting [1]). The Surv. in the experiment on Sarcoma 180 ascites (setting [11]) was 2/ 6; in the experiment with Sarcoma 180 ascites (setting [2]), 3/ 6; with Sarcoma 180 ascites (setting [12]), 4/ 6; in the experiment with Sarcoma 180 ascites (setting [3]) it was 4/ 6; in the experiment with Sarcoma 180 ascites (setting [13]), 1/ 6; in the experiment on Sarcoma 180 ascites (setting [4]), 3/ 6.

Turning to `N.N.O=C1CP(=O)([O-])[O][Pt][O]1.[Na+]` [Ex 21, Na(cis-Pt(NH3)2(phosphonoacetate)]], the “%ILS” value is reported as -10% in the experiment with L1210 leukemia (setting [7]); -5% in the experiment on L1210 leukemia (setting [1]); 13% in the experiment with L1210 leukemia (setting [2]); 12% with L1210 leukemia (setting [3]); 10% in the experiment with L1210 leukemia (setting [4]); -80% in the experiment on L1210 leukemia (setting [5]). The Surv. with L1210 leukemia (setting [7]), with L1210 leukemia (setting [1]), in the experiment on L1210 leukemia (setting [2]), in the experiment with L1210 leukemia (setting [3]), in the experiment with L1210 leukemia (setting [4]) and with L1210 leukemia (setting [5]) was 0/ 6 each time.

Take `CCCC1C(=O)[O][Pt][O]P1(=O)[O-].N.N.[Na+]` (racemic) [Ex 19, Na[cis-Pt(NH3)2(2-phosphonovalerate)]]: the “%ILS” value is on record as -74% in the experiment with Sarcoma 180 ascites (setting [1]), -85% with Sarcoma 180 ascites (setting [2]), -95% with Sarcoma 180 ascites (setting [3]) and -95% with Sarcoma 180 ascites (setting [4]). The Surv. in the experiment with Sarcoma 180 ascites (setting [1]), in the experiment on Sarcoma 180 ascites (setting [2]), with Sarcoma 180 ascites (setting [3]) and in the experiment with Sarcoma 180 ascites (setting [4]) was 0/ 6 each time.

For the compound `CCC1C(=O)[O][Pt][O]P1(=O)[O-].N.N.[Na+]` (racemic) [Ex 14, Na[cis-Pt(NH3)2(2-phosphonobutyrate)]], the “%ILS” value with L1210 leukemia (setting [7]) is given as -10%; in the experiment with L1210 leukemia (setting [1]), -8%; in the experiment on L1210 leukemia (setting [2]), -15%; in the experiment with L1210 leukemia (setting [3]), -5%; in the experiment on L1210 leukemia (setting [4]), -67%; in the experiment on L1210 leukemia (setting [5]), -80%. Further, the Surv. in the experiment with L1210 leukemia (setting [7]), in the experiment with L1210 leukemia (setting [1]), in the experiment on L1210 leukemia (setting [2]), with L1210 leukemia (setting [3]), in the experiment on L1210 leukemia (setting [4]) and in the experiment with L1210 leukemia (setting [5]) was 0/ 6 throughout.

For the compound `NCCN.O=C1[O][Pt][O]P1(=O)O` [Ex 13, H[Pt(en)(phosphonoformate)]], the “%ILS” value is reported as 9% in the experiment with Sarcoma 180 ascites (setting [8]); 31% in the experiment with Sarcoma 180 ascites (setting [9]); 63% with Sarcoma 180 ascites (setting [10]); 93% in the experiment with Sarcoma 180 ascites (setting [11]); 58% in the experiment on Sarcoma 180 ascites (setting [12]); -74% with Sarcoma 180 ascites (setting [13]). Besides, the Surv. with Sarcoma 180 ascites (setting [8]) is 0/ 6; in the experiment on Sarcoma 180 ascites (setting [9]), 1/ 6; in the experiment with Sarcoma 180 ascites (setting [10]), 1/ 6; in the experiment on Sarcoma 180 ascites (setting [11]), 5/ 6; in the experiment with Sarcoma 180 ascites (setting [12]), 2/ 6; with Sarcoma 180 ascites (setting [13]), 0/ 6.

For `CC(N)CN.CC1C(=O)[O][Pt][O]P1(=O)[O-].[Na+]` (mixture of isomers) [Ex 12, Na[Pt(pn)(2-phosphonopropionate)]], the “%ILS” value in the experiment with Sarcoma 180 ascites (setting [1]) stood at 20%; with Sarcoma 180 ascites (setting [2]) it was 24%; with Sarcoma 180 ascites (setting [3]) it was 40%; in the experiment on Sarcoma 180 ascites (setting [4]) it was 53%. Moreover, the Surv. in the experiment on Sarcoma 180 ascites (setting [1]) was 0/ 6; in the experiment with Sarcoma 180 ascites (setting [2]) it was 0/ 6; in the experiment on Sarcoma 180 ascites (setting [3]), 0/ 6; with Sarcoma 180 ascites (setting [4]) it was 1/ 6.

With `N.N.O=C1[O][Pt][O]P(=O)([O-])C1c1ccccc1.[Na+]` (racemic) [Ex 7, Na[cis-Pt(NHs)2(2-phosphonophenylacetate)]], the “%ILS” value is reported as 14% with Sarcoma 180 ascites (setting [1]), 26% in the experiment with Sarcoma 180 ascites (setting [2]), 71% with Sarcoma 180 ascites (setting [3]) and 28% in the experiment with Sarcoma 180 ascites (setting [4]). Also, the Surv. was 0/ 6 with Sarcoma 180 ascites (setting [1]), 0/ 6 in the experiment with Sarcoma 180 ascites (setting [2]), 2/ 6 in the experiment with Sarcoma 180 ascites (setting [3]) and 0/ 6 with Sarcoma 180 ascites (setting [4]).
